Reference: patent US5436229A, “Bisulfite adducts of arginine aldehydes” (Eli Lilly and Company, priority 1994, dated 1995)
Non-standard residues stand in square brackets, D forms with d. Residues, ends and D or L forms follow the SMILES beside them. dPip = O=C(O)[C@H]1CCCCN1

Key:
human thrombin = human thrombin (Homo sapiens, UniProt P00734); experiment: Thrombin amidase inhibition (Kass), chromogenic substrate; type: biochemical
Procedure, shortened: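 Purified human thrombin (8 NIH units/ml solution) mixed with compound in 50% aqueous methanol and 0.03M Tris, 0.15M NaCl, pH 7.4; chromogenic substrate (0.25 mg/ml solution) added, p-nitroaniline release followed at 405 nm. Free thrombin read from a standard curve; Kass (L/mol) is the mean over a range of compound concentrations.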

[1] = biological target: T1, tissue plasminogen activator (t-PA) (Homo sapiens, UniProt P00750); experiment: Serine protease inhibition (Kass), t-PA; type: biochemical
T1 construct: purchased American Diagnostica, Greenwich, Conn

[2] = Index of Bioavailability (plasma TT AUC, oral vs i.v.); type: in vivo; conditions: rats, oral vs i.v. bolus
Description: Assays are done in duplicate and averaged.
Each sample population represents alternating sequential time points.

[3] = Pharmacokinetic Model, oral gavage; type: in vivo; conditions: dogs, single 2 mg/kg oral gavage
Method: Male dogs (Beagles; 18 months-2 years; 12-13 kg, Marshall Farms, North Rose, N.Y. 14516) are fasted overnight and fed Purina certified Prescription Diet (Purina Mills, St. Louis, Mo.) 240 minutes after dosing. Water is available ad libitum. The room temperature is maintained between 66°-74° F.; 45-50 percent relative humidity; and lighted from 0600-1800 hours.
Test compound is formulated immediately prior to dosing by dissolving in sterile 0.9 percent saline to a 5 mg/ml preparation. Dogs are given a single 2 mg/kg dose of test compound by oral gavage. Blood samples (4.5 ml) are taken from the cephalic vein at 0.25, 0.5, 0.75, 1,2,3,4 and 6 hours after dosing. Samples are collected in citrated Vacutainer tubes and kept on ice prior to reduction to plasma by centrifugation. Plasma samples are derivatized with dinitrophenylhydrazine and analyzed by HPLC (Zorbax SB-C8 column) eluting with methanol/500 mM sodium acetate adjusted to pH7 with phosphoric acid (60:40, v/v). Plasma concentration of test compound is recorded and used to calculate the pharmacokinetic parameters: elimination rate constant, Ke; total clearance, Clt; volume of distribution, VD; time of maximum plasma test compound concentration, Tmax; maximum concentration of test compound of Tmax, Cmax; plasma half-life, t0.5; and area under the curve, A.U.C.; fraction of test compound absorbed, F.

[4] = system: coronary artery thrombosis; experiment: Canine Model of Coronary Artery Thrombosis; type: in vivo, dogs
Method: Surgical preparation and instrumentation of the dogs are as described in Jackson, et al., Circulation, 82, 930-940 (1990). Mixed-breed hounds (aged 6-7 months, either sex, Hazelton-LRE, Kalamazoo, Mich., U.S.A.) are anesthetized with sodium pentobarbital (30 mg/kg intravenously, i.v.), intubated, and ventilated with room air. Tidal volume and respiratory rates are adjusted to maintain blood PO2, PCO2, and pH within normal limits. Subdermal needle electrodes are inserted for the recording of a lead II ECG.
The left jugular vein and common carotid artery are isolated through a left mediolateral neck incision. Arterial blood pressure (ABP) is measured continuously with a precalibrated Millar transducer (model (MPC-500, Millar Instruments, Houston, Tex., U.S.A.) inserted into the carotid artery. The jugular vein is cannulated for blood sampling during the experiment. In addition, the femoral veins of both hindlegs are cannulated for administration of test compound.
A left thoracotomy is performed at the fifth intercostal space, and the heart is suspended in a pericardial cradle. A 1- to 2-cm segment of the left circumflex coronary artery (LCX) is isolated proximal to the first major diagonal ventricular branch. A 26-gauge needle-tipped wire anodal electrode (Teflon-coated, 30-gauge silverplated copper wire) 3-4 mm long is inserted into the LCX and placed in contact with the intimal surface of the artery (confirmed at the end of the experiment). The stimulating circuit is completed by placing the cathode in a subcutaneous (s.c.) site. An adjustable plastic occluder is placed around the LCX, over the region of the electrode. […] All hemodynamic and ECG measurements are recorded and analyzed with a data acquisition system (model M3000, Modular Instruments, Malvern, Pa. U.S.A.).
Electrolytic injury of the intima of the LCX is produced by applying 100-μA direct current (DC) to the anode. […] Thrombus formation proceeds spontaneously until the LCX is totally occluded (determined as zero CBF and an increase in the S-T segment). […]

template bleeding time = experiment: Template Bleeding Time assay; type: in vivo, dogs; conditions: 0.25, 0.50 and 1.0 mg/kg.hr, over a 240 minute time
Method: Whole blood cell counts, hemoglobin, and hematocrit values are determined on a 40-μl sample of citrated (3.8 percent) blood (1 part citrate:9 parts blood) with a hematology analyzer (Cell-Dyn 900, Sequoia-Turner. Mount View, Calif., U.S.A.). Gingival template bleeding times are determined with a Simplate II bleeding time device (Organon Teknika Durham, N.C., U.S.A.). The device is used to make 2 horizontal incisions in the gingiva of either the upper or lower left jaw of the dog. Each incision is 3 mm wide×2 mm deep. The incisions are made, and a stopwatch is used to determine how long bleeding occurs. A cotton swab is used to soak up the blood as it oozes from the incision. Template bleeding time is the time from incision to stoppage of bleeding. Bleeding times are taken just before administration of test compound (0 min), 60 min into infusion, at conclusion of administration of the test compound (120 min), and at the end of the experiment.
All data are analyzed by one-way analysis of variance (ANOVA) followed by Student-Neuman-Kuels post hoc t test to determine the level of significance. Repeated-measures ANOVA are used to determine significant differences between time points during the experiments. Values are determined to be statistically different at least at the level of p<0.05. All values are mean±SEM. […]

T1 sequence (P00750 36-562): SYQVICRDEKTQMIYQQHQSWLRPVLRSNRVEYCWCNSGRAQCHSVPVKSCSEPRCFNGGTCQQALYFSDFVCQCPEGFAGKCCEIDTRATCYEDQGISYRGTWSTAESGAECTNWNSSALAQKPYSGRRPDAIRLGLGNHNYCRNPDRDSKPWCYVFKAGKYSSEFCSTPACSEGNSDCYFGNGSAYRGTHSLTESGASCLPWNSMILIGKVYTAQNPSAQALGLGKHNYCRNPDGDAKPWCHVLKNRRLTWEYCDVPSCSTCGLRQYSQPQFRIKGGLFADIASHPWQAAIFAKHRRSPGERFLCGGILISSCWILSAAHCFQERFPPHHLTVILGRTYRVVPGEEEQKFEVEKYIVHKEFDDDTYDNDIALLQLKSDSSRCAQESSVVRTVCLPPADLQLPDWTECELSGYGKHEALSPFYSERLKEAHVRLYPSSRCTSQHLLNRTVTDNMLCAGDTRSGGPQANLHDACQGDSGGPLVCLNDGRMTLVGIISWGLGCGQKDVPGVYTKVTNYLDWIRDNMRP

Cl.Cl.N=C(N)NCCC[C@@H](C=O)NC(=O)[C@@H]1CCCN1C(=O)[C@H]1CCCCN1 [Example 1, D-Homoprolinyl-L-Prolinyl-L-Arginine Aldehyde Dihydrochloride] (H-[dPip]-Pro-Arg-aldehyde)
Kass Human Thrombin (human thrombin): 46 L/mol × 10^6 | Kass t-PA [1]: 0.02 L/mol × 10^6 | Percent Relative Activity (Index of Bioavailability) [2]: 38% | A.U.C. o-infinity [3]: 4651 ng·h/mL | Clt/F [3]: 7.28 mL/min/kg | Cmax [3]: 1676 ng/mL | Ke [3]: 0.0104 min.-1 | Tmax [3]: 1 to 2 h | VD/F [3]: 0.729 L/kg | t0.5 [3]: 67 min | Time to Occlusion ([4]; dose 0.25 mg/kg.hr): 60 min | Time to Occlusion ([4]; dose 0.50 mg/kg.hr): 150 min | Time to Occlusion ([4]; dose 1.00 mg/kg.hr): > 225 min | effect on template bleeding time (template bleeding time): no significant effect on template bleeding time
